Experimental data published in US8846703B2, “Crystal of a free tricyclic pyrazolopyrimidine derivative” (Daiichi Sankyo Company, Limited, priority 2010, dated 2014).

Experiments:
[1] = test system: human breast cancer cell line SK-BR-3; assay: Cell growth inhibition assay (MTT), SK-BR-3; type: cell-based; settings: SK-BR-3 cells, 72 hours, read-out: GI50 value (50% growth inhibitory concentration)
Experimental: (§1) A cell growth inhibition assay was performed using two types of cells (human breast cancer cell line SK-BR-3 and human lung cancer cell line NCI-H460).
(§2) Cells of each type were suspended in a medium and seeded into a 96-well multi-well plate at 2000 cells/150 μL/well in the case of SK-BR-3 and at 500 cells/150 μL/well in the case of NCI-H460. Compound (I) was dissolved in DMSO, and this was diluted with medium to prepare a sample solution (DMSO concentration: 0.5% or less). On the day following the seeding, 50 μL of DMSO-containing medium to which the test compound was not added (hereinafter called DMSO diluted solution; DMSO concentration: 0.5% or less) or 50 μL of the sample solution was further added to the cells. An MTT assay was performed immediately after and 72 hours after adding the sample solution or the DMSO diluted solution to the cells. The MTT assay was performed as follows.
(§3) 5 mg/mL of an MTT (3-(4,5-dimethylthiazol-2-yl)-2,5-diphenyltetrazolium bromide) solution was added at 20 μL per well. Thereafter, the plate was incubated at 37° C. in 5% CO2 for four hours. The plate was centrifuged at 1200 rpm for five minutes, and then the culture supernatant was removed by suction using a dispenser. DMSO was added at 150 μL per well, and the generated formazan was dissolved. […] The absorbance of each well was measured using a plate reader at an OD of 540 nm with a reference of 660 nm. […]

[2] = test system: human lung cancer cell line NCI-H460; assay: Cell growth inhibition assay (MTT), NCI-H460; type: cell-based; settings: NCI-H460 cells, 72 hours, read-out: GI50 value (50% growth inhibitory concentration)
Experimental: as §1, §2, §3

- GI50 [1]: 13 nM
- GI50 [2]: 26 nM
Compound: CNC(=O)CC1=Cc2nn(Cc3ncc(C)c(OC)c3Cl)c3nc(N)nc(c23)SC1 [Compound (1), 2-{4-amino-2-[(3-chloro-4-methoxy-5-methylpyridin-2-yl)methyl]-2,7-dihydro-6-thia-1,2,3,5-tetraazabenzo[cd]azulen-8-yl}-N-methylacetamide]
